Test results published in PMC8582824, “Targeting DDX3X Helicase Activity with BA103 Shows Promising Therapeutic Effects in Preclinical Glioblastoma Models” (Cancers, 2021).

Key:
[1] = target: T1, DDX3X helicase activity (Homo sapiens, UniProt O00571); test: FRET-based DDX3X helicase assay; type: biochemical; conditions: for IC50: FRET helicase assay, recombinant DDX3X, read-out: IC50 ± SD, DDX3X anti-enzymatic (helicase) activity
T1 construct: Recombinant his-tagged human full length DDX3X; His tag; made in house; host or cells: ShuffleT7 E. coli
T1 sequence (O00571 whole entry): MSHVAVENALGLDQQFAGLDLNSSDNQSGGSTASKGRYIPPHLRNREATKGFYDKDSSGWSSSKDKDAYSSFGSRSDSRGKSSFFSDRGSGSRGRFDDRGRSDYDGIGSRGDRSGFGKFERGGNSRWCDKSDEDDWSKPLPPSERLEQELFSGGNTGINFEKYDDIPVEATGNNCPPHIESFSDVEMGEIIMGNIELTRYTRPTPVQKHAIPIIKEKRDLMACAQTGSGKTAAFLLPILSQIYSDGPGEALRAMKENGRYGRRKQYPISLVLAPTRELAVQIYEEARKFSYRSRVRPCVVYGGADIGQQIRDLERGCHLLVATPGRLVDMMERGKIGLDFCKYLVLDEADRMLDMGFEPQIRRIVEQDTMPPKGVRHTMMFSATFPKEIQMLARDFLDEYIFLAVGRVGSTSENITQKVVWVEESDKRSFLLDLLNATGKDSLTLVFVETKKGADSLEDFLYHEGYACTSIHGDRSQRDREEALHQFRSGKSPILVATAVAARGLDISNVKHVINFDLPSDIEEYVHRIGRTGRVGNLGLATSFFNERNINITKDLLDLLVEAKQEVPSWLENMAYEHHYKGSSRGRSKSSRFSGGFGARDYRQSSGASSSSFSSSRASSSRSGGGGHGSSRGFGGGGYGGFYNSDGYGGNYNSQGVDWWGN
Description: Recombinant his-tagged human full length DDX3X cloned the E. coli expression vector pET-30a(+). ShuffleT7 E. coli cells were transformed with the plasmid and grown at 37 °C up to OD600 = 0.7. DDX3X expression was induced with 0.5 mM IPTG at 15 °C O/N. Cells were harvested by centrifugation, lysed, and the crude extract was centrifuged at 100,000 g for 60 min at 4 °C in a Beckman centrifuge before being loaded onto a FPLC Ni-NTA column (GE Healthcare, Chicago, IL, USA). The column was equilibrated in Buffer A (50 mM Tris-HCl pH 8.0, 250 mM NaCl, 25 mM Imidazole and 20% glycerol). After extensive washing in Buffer A, the column was eluted with a linear gradient in Buffer A from 25 to 250 mM Imidazole. Proteins in the eluted fractions were visualized on SDS-PAGE and tested for the presence of DDX3X by Western blot with anti-DDX3X A300-475A (Bethyl Laboratories, Montgomery, TX, USA) at 1:4000 dilution in 5% milk. Fractions containing the purest DDX3X protein were pooled and stored at −80 °C.
The dsRNA substrate for the helicase assay was prepared by hybridizing two ss RNA oligonucleotides with the following sequences: • Fluo-FAM 5′ […] 3′ • Qu-BHQ1 5′ […] 3′ • DNA capture 5′ […] 3′.
The sequence in Fluo-FAM complementary to Qu-BHQ1 is underlined. Fluo-FAM carries a 6-carboxyfluorescein fluorophore at its 3′ end, while Qu-BHQ1 carries a Black Hole quencher group at its 5′ end. The DNA capture oligonucleotide is complementary to the Qu-BHQ1 oligonucleotide, but it bears no modifications. A helicase assay using the dsRNA substrate was performed in 20 mM TrisHCl (pH 8), 70 mM KCl, 2 mM MgCl2, 2 mM dithiothreititol, 12 units RNasin (Promega), 2 mM ATP, 50 nM dsRNA, and 100 nM capture strand in 20 μL of reaction volume. The unwinding reaction was started by adding 60 pmols of DDX3X recombinant protein and carried out at 37 °C for 40 min using a LightCycler 480 (Roche, Basel, Switzerland). The fluorescence intensity was recorded every 30 s. Values of fluorescence signal in the presence or in the absence of inhibitor molecules were analyzed by linear interpolation, and the corresponding slope values were used to determine the apparent unwinding rate.
The IC50 values have been calculated from dose–response curves. Data (in triplicate) were plotted and analyzed by least-squares nonlinear regression, according to the method of Marquardt–Levenberg, with the computer program GraphPad Prism 6.0. Data were fitted to the following equation:Eobs = Emax/(1 + (IC50/[I])^n)(1) where E(obs) is the observed enzymatic activity in the presence of each inhibitor dose [I]; E(max) is the maximal enzymatic activity in the absence of the inhibitor; and n is an exponential term to take into account sigmoidal dose–response curves.
All the compounds were tested for their ability to inhibit the helicase activity of DDX3X using a fluorescence resonance energy transfer (FRET)-based assay, as previously described. Values of fluorescence signal in the presence or in the absence of inhibitor molecules were analyzed by linear interpolation (for details, see Methods 2.3.2).

[2] = system: panel of cancer cell lines (Du-145, PC3, HepG2, Huh-7, HN6, U87 and U231); test: Cytotoxicity screen on panel of cancer cell lines; type: cell-based; conditions: 72 h of treatment
Description: For CellTiter 96® Aqueous One Solution Cell Proliferation Assay (MTS) (Promega, Madison, WI, USA), cells were seeded at 5 × 10^3 per well in 96-well plates in quadruplicate together a control with no cells to evaluate the background. After 24 h, the culture medium was removed, and fresh medium containing increasing concentrations of chemical compounds was added to cells. The fixed final concentrations were 0.1 μM, 1 μM, 10 μM, and 100 μM. DMSO was the vehicle used for dilution of the compounds, and its final concentration on cells was less than 0.2%. Medium-only containing wells were included as controls. […] After 3 h at 37 °C in a humidified, 5% CO2 atmosphere, the absorbance at 492 nm was recorded using an EZREAD400 (Biochrom, Cambridge, United Kingdom) plate reader. The average 490 nm absorbance from the “no cell” control wells was subtracted from all other values to yield background-corrected absorbance. Dose–response curves and CC50 values have been calculated by plotting the absorbance data as a function of inhibitor concentrations and fitting the data by least-squares nonlinear regression, according to the method of Marquardt–Levenberg, with the computer program GraphPad Prism 6.0.
Cells were incubated with a scalar concentration of DDX3X inhibitors, and after 72 h of treatment, cell viability was assessed by cytotoxicity assay. […]

[3] = system: U87 cells; test: MTS cytotoxicity assay, U87 cells; type: cell-based; conditions: 72 h
Description: (§1) For CellTiter 96® Aqueous One Solution Cell Proliferation Assay (MTS) (Promega, Madison, WI, USA), cells were seeded at 5 × 10^3 per well in 96-well plates in quadruplicate together a control with no cells to evaluate the background. After 24 h, the culture medium was removed, and fresh medium containing increasing concentrations of chemical compounds was added to cells. […] DMSO was the vehicle used for dilution of the compounds, and its final concentration on cells was less than 0.2%. Medium-only containing wells were included as controls. Cells were incubated with compounds at different concentrations for 72 h, then, 20 µL of CellTiter 96® AQueous One Solution Reagent was added into each well. After 3 h at 37 °C in a humidified, 5% CO2 atmosphere, the absorbance at 492 nm was recorded using an EZREAD400 (Biochrom, Cambridge, United Kingdom) plate reader. The average 490 nm absorbance from the “no cell” control wells was subtracted from all other values to yield background-corrected absorbance. Dose–response curves and CC50 values have been calculated by plotting the absorbance data as a function of inhibitor concentrations and fitting the data by least-squares nonlinear regression, according to the method of Marquardt–Levenberg, with the computer program GraphPad Prism 6.0.
(§2) Cells were incubated with a scalar concentration of DDX3X inhibitors, and after 72 h of treatment, cell viability was assessed by cytotoxicity assay. […] Compounds 4, 6, and BA103 were also evaluated against BJ primary fibroblasts; compound 4 has a cytotoxicity value of 84.7 μM; on the contrary, compounds 6 and BA103 were not toxic up to 200 μM concentration. This further excluded a possible nonspecific cytotoxic effect. […] Due to its interesting profile, compound BA103 was further tested against additional pulmonary (A549), breast (MDA-MB-231), colorectal (HCT-116), osteosarcoma (U2OS), rhabdomyosarcoma (RD18), GBM (DBTRG, U87, and U251) and medulloblastoma (DAOY) cancer cell lines.
(§3) Figure 5 Cytotoxicity of selected compounds. Compounds were assayed on DU-145, PC3, HepG2, Huh-7, HN6, U251, and U87 cell lines. The concentration of the compound, which reduced the number of viable cells by 50% (CC50), was determined by dose–response curve, and the mean CC50 value for each cell line was calculated by triplicate assays (raw data from U87 and U251 cells with dose–response curves used for the calculation of CC50 in Table S1 and Figure S2).
(§4) Table S1: Raw data of optical absorbance at 490 nm from MTS assay in U87 and U251 cells. Tables contain
(§5) means with SD of at least 5 different values that were used for preparation of figure 5.

[4] = system: U251 cells; test: MTS cytotoxicity assay, U251 cells; type: cell-based; conditions: 72 h
Description: as §1, §2, §3, §4, §5

1-(4-(4-Butyl-1H-1,2,3-triazol-1-yl)phenyl)-3-(4-methylpyridin-3-yl)urea [Compound 14]
IC50 [1]: 2000 ± 300 nM

1-(4-(4-Isopentyl-1H-1,2,3-triazol-1-yl)phenyl)-3-(4-methylpyridin-3-yl)urea [Compound 13]
IC50 [1]: 1500 ± 300 nM

CCCCc1cc(-c2ccc(NC(=O)Nc3ccccc3C(F)(F)F)cc2)no1 [Compound 2, 1-(4-(5-Butylisoxazol-3-yl)phenyl)-3-(2-(trifluoromethyl)phenyl)urea]
solubility in assay medium ([1]; during the enzymatic assay): precipitated from medium

CCCCn1nnc(-c2ccc(NC(=O)Nc3ccccc3C)cc2)n1 [Compound 5, 1-(4-(2-Butyl-2H-tetrazol-5-yl)phenyl)-3-(o-tolyl)urea]
times less active than hit compound 1 (loss of activity) ([1]; DDX3X helicase inhibition relative to compound 1): 16 times

CCCCc1nnc(-c2ccc(NC(=O)Nc3ccccc3C(F)(F)F)cc2)s1 [Compound 8, 1-(4-(5-Butyl-1,3,4-thiadiazol-2-yl)phenyl)-3-(2-(trifluoromethyl)phenyl)urea]
IC50 [1]: 50000 ± 7000 nM
growth inhibition in all the cell lines tested [2]: poorly effective against all the cell lines tested
mean absorbance at 490 nm (MTS) ([3]; U87, 0,01 uM): 2,267
mean absorbance at 490 nm (MTS) ([3]; U87, 0,1 uM): 1,994
mean absorbance at 490 nm (MTS) ([3]; U87, 1 uM): 1,965
mean absorbance at 490 nm (MTS) ([3]; U87, 10 uM): 1,945
mean absorbance at 490 nm (MTS) ([3]; U87, 100 uM): 1,054
mean absorbance at 490 nm (MTS) ([4]; U251, 0,01 uM): 2,363
mean absorbance at 490 nm (MTS) ([4]; U251, 0,1 uM): 2,282
mean absorbance at 490 nm (MTS) ([4]; U251, 1 uM): 2,177
mean absorbance at 490 nm (MTS) ([4]; U251, 10 uM): 1,806
mean absorbance at 490 nm (MTS) ([4]; U251, 100 uM): 0,786

CC(C)CCc1cn(-c2ccc(NC(=O)Nc3ccccc3C(F)(F)F)cn2)nn1 [Compound 9, 1-(6-(4-Isopentyl-1H-1,2,3-triazol-1-yl)pyridin-3-yl)-3-(2-(trifluoromethyl)phenyl)urea]
IC50 [1]: 1100 ± 200 nM
